Results: US20150258059A1, “ANTIMICROBIAL AND RADIOPROTECTIVE COMPOUNDS” (BioDiem, Ltd, priority 2001, published 2015)
Converted amounts (≈) assume the structure as drawn.

Tests used:
[1] = tested on: Corynebacterium paratuberculosis; assay: Anti-bacterial activity in vivo, infected mice
Method: The therapeutic and prophylactic effect of the substances was determined in experiments in vivo on mice, infected intraperitoneally or intranasally with Corynebacterium paratuberculosis.

[2] = tested on: skin wounds infected by Streptococcus and Staphylococcus; assay: Treatment of infected wounds, human volunteers; assay type: in vivo; conditions: 0.1% ointment for 3 days
Method: Human volunteers suffering from skin wounds infected by Streptococcus and Staphylococcus were treated with 0.1% Compounds (1) and (2) in an ointment base of vaseline, sheep fat, and sulfoxide.

Salmonella intranasally = assay: Anti-bacterial activity in vivo, infected mice; conditions: schedule +2, +3; 200 mg/kg intramuscularly
C. tropicalis RMIT 181 = assay: M38-P microdilution MIC/MFC; assay type: cell-based; conditions: Table 16, 24 h, 35° C.
Fusarium graminearum = assay: microbe, parasite or virus in culture; assay type: cell-based; conditions: Table 16; M38-P; 48 h, 35° C.
[3] = tested on: C. guillermondii RMIT 176; assay: M38-P microdilution MIC/MFC; assay type: cell-based; conditions: Table 16, 24 h, 35° C.
R. oryzae = assay: M38-P microdilution MIC/MFC; assay type: cell-based; conditions: Table 16, 48 h, 35° C.
F. chlamydosporum = assay: M38-P microdilution MIC/MFC; assay type: cell-based; conditions: Table 16, 48 h, 35° C.
A. Flavus = assay: M38-P microdilution MIC/MFC; assay type: cell-based; conditions: Table 16, 48 h, 35° C.
Candida albicans = assay: M38-P microdilution MIC/MFC; assay type: cell-based; conditions: Table 16, 24 h, 35° C.
Aspergillus fumigatus = assay: M38-P microdilution MIC/MFC; assay type: cell-based; conditions: Table 16, 48 h, 35° C.
C. glabrate RMIT 157 = assay: M38-P microdilution MIC/MFC; assay type: cell-based; conditions: Table 16, 24 h, 35° C.
Rhizopus stoloniefer = assay: M38-P microdilution MIC/MFC; assay type: cell-based; conditions: Table 16, 48 h, 35° C.
C. krusei RMIT 177 = assay: M38-P microdilution MIC/MFC; assay type: cell-based; conditions: Table 16, 24 h, 35° C.
Rhizomucor pusillus = assay: M38-P microdilution MIC/MFC; assay type: cell-based; conditions: Table 16, 48 h, 35° C.
Pseudoallescheria boydii = assay: M38-P microdilution MIC/MFC; assay type: cell-based; conditions: Table 16, Dematiaceous fungi
Paecilomyces variotii = assay: M38-P microdilution MIC/MFC; assay type: cell-based; conditions: Table 16, 48 h, 35° C.
Fonsecaea pedrosoi = assay: M38-P microdilution MIC/MFC; assay type: cell-based; conditions: Table 16, Dematiaceous fungi
C. parapsilosis RMIT 178 = assay: M38-P microdilution MIC/MFC; assay type: cell-based; conditions: Table 16, 24 h, 35° C.
A. Niger = assay: M38-P microdilution MIC/MFC; assay type: cell-based; conditions: Table 16, 48 h, 35° C.
Cryptococcus neoformans = assay: M38-P microdilution MIC/MFC; assay type: cell-based; conditions: Table 16, 24 h, 35° C.
Phialophora verrucosa = assay: M38-P microdilution MIC/MFC; assay type: cell-based; conditions: Table 16, Dematiaceous fungi

**Q.** Which “solubility in organic solvents” value (Solubility) does the source give for O=[N+]([O-])/C=C/c1ccc2c(c1)OCO2 [Compound (2), 3,4-methylenedioxy-β-nitrostyrene] here?
**A.** soluble in acetone, alcohol, acetic acid and in a majority of organic solvents

**Q.** What about the solubility in water (Solubility) of the same compound?
**A.** non-soluble in water

**Q.** And the “therapeutic and prophylactic activity” value [1]?
**A.** showed therapeutic and prophylactic activity

**Q.** What about the “clearing of infected wound” value [2] of the same compound?
**A.** cleared the wound completely of pus

**Q.** What about the “Cumulative mortality (test)” value (Salmonella intranasally) of the same compound?
**A.** 15

**Q.** And the “Incubation period days (test)” value (Salmonella intranasally)?
**A.** 1 days

**Q.** Which MIC (C. tropicalis RMIT 181) does the source give for C[C@@H]1[C@H](O)[C@@H](C)/C=C/C=C/C=C/C=C/C=C/C=C/C=C/[C@H](O[C@@H]2O[C@H](C)[C@@H](O)[C@H](N)[C@@H]2O)C[C@@H]2O[C@](O)(C[C@@H](O)C[C@@H](O)[C@H](O)CC[C@@H](O)C[C@@H](O)CC(=O)O[C@H]1C)C[C@H](O)[C@H]2C(=O)O [Amphotericin B] here?
**A.** 0.25 µg/mL (≈ 0.271 µM)

**Q.** What about the MMC (C. tropicalis RMIT 181) of the same compound?
**A.** 0.5 µg/mL

**Q.** What about the MIC (Fusarium graminearum) of the same compound?
**A.** 4 µg/mL (≈ 4.33 µM)

**Q.** What about the MMC (Fusarium graminearum) of the same compound?
**A.** 8 µg/mL

**Q.** What about the MIC [3] of the same compound?
**A.** 0.03 µg/mL (≈ 0.0325 µM)

**Q.** And the MMC [3]?
**A.** 0.06 µg/mL

**Q.** And the MIC (R. oryzae)?
**A.** 4 µg/mL (≈ 4.33 µM)

**Q.** And the MMC (R. oryzae)?
**A.** 4 µg/mL

**Q.** What about the MIC (F. chlamydosporum) of the same compound?
**A.** 2 µg/mL (≈ 2.16 µM)

**Q.** What about the MMC (F. chlamydosporum) of the same compound?
**A.** 2 µg/mL

**Q.** And the MIC (A. Flavus)?
**A.** 8 µg/mL (≈ 8.66 µM)

**Q.** What about the MMC (A. Flavus) of the same compound?
**A.** 8 µg/mL

**Q.** What about the MIC (Candida albicans) of the same compound?
**A.** 0.251 µg/mL (≈ 0.272 µM)

**Q.** And the MMC (Candida albicans)?
**A.** 0.25 µg/mL

**Q.** What about the MMC (Aspergillus fumigatus) of the same compound?
**A.** 8 µg/mL

**Q.** What about the MIC (C. glabrate RMIT 157) of the same compound?
**A.** 0.5 µg/mL (≈ 0.541 µM)

**Q.** And the MMC (C. glabrate RMIT 157)?
**A.** 1 µg/mL

**Q.** What about the MIC (Rhizopus stoloniefer) of the same compound?
**A.** >16 µg/mL

**Q.** And the MIC (C. krusei RMIT 177)?
**A.** 0.52 µg/mL (≈ 0.563 µM)

**Q.** And the MMC (C. krusei RMIT 177)?
**A.** 0.5 µg/mL

**Q.** What about the MIC (Rhizomucor pusillus) of the same compound?
**A.** 1 µg/mL (≈ 1.08 µM)

**Q.** What about the MMC (Rhizomucor pusillus) of the same compound?
**A.** 1 µg/mL

**Q.** And the MIC (Pseudoallescheria boydii)?
**A.** 4 µg/mL (≈ 4.33 µM)

**Q.** What about the MMC (Pseudoallescheria boydii) of the same compound?
**A.** 16 µg/mL

**Q.** And the MIC (Paecilomyces variotii)?
**A.** 1 µg/mL (≈ 1.08 µM)

**Q.** What about the MMC (Paecilomyces variotii) of the same compound?
**A.** 1 µg/mL

**Q.** And the MIC (Fonsecaea pedrosoi)?
**A.** 8 µg/mL (≈ 8.66 µM)

**Q.** What about the MMC (Fonsecaea pedrosoi) of the same compound?
**A.** 16 µg/mL

**Q.** What about the MIC (C. parapsilosis RMIT 178) of the same compound?
**A.** 0.253 µg/mL (≈ 0.274 µM)

**Q.** And the MMC (C. parapsilosis RMIT 178)?
**A.** 0.25 µg/mL

**Q.** What about the MIC (A. Niger) of the same compound?
**A.** 2 µg/mL (≈ 2.16 µM)

**Q.** And the MMC (A. Niger)?
**A.** 2 µg/mL

**Q.** What about the MIC (Cryptococcus neoformans) of the same compound?
**A.** 0.5 µg/mL (≈ 0.541 µM)

**Q.** And the MIC (Phialophora verrucosa)?
**A.** 2 µg/mL (≈ 2.16 µM)

**Q.** And the MMC (Phialophora verrucosa)?
**A.** 4 µg/mL
